These results are taken from patent publication US8129424B2, “Indole derivatives as histamine 3 receptor inhibitors for the treatment of cognitive and sleep disorders, obesity and other CNS disorders” (Athersys, Inc., priority 2005, dated 2012).

T1 sequence (Q9Y5N1 whole entry): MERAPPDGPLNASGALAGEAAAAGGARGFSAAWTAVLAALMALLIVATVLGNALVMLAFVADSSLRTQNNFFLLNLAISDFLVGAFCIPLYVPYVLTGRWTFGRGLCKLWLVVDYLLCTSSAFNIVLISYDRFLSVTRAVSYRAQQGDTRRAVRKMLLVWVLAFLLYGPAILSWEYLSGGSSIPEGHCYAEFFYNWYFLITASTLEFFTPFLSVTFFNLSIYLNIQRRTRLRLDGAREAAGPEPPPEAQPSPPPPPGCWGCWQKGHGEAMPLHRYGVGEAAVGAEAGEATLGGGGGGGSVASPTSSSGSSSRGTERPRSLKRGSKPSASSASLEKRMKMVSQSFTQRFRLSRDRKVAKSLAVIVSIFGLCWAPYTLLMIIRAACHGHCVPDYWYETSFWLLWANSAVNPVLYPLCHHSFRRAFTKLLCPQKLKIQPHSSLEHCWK

This test concerns the target T1, human histamine H3 receptor (Homo sapiens, UniProt Q9Y5N1).
T1 construct: expressed in transfected cells; host or cells: HT1080-Gqαi5 cells (human), pFG8-HH3 RAGE vector integrated; methotrexate-amplified clone RAGE-H3
Nature of the test: Radioligand competition binding assay with [125I]iodoproxyfan on RAGE-H3 cell membranes. Conditions: [125I]iodoproxyfan competition binding, apparent Ki by Cheng-Prussof equation. The protocol:
Representative compounds of the present invention that were prepared by the procedures of Examples 1-41 were evaluated in binding assays against cells expressing human H3 receptor by the following procedure.
The human histamine H3 receptor was stably expressed in HT1080 cells containing the chimeric G-protein, Gq[…]i5 (Coward et al., Anal Biochem 1999; 270:242-8). HT1080-Gqαi5 cells were grown in alpha-modified MEM containing 10% fetal bovine serum and 7 μg/ml blasticidin at 37° C. in 5% CO2/95% atmosphere. Cells (4.8×10^9) were irradiated with 50 rads from a ^137Cs source and the pFG8-HH3 RAGE (Random Activation of Gene Expression; see Harrington et al., Nature Biotechnology. 2001; 19:440-45) vector was subsequently integrated into the cells via electroporation (250V, 600 μF, 50Ω). The RAGE vector pFG8-HH3 contained cDNA sequence coding for the first exon (83 amino acids) of human H3 receptor. After electroporation, cells were plated in T75 flasks and grown in alpha-modified MEM. The culture medium was replaced 48 hours after electroporation with alpha-modified MEM, 10% fetal bovine serum, 500 μg/ml hygromycin B and 3 μg/ml puromycin. Medium was replaced every four days during cell expansion. To identify RAGE activated cells expressing the H3 receptor, pools of approximately 10,000 colonies (5×10^7-1.5×10^8 cells total) were screened by PCR for the desired gene product (using primers specific to the RAGE vector and exon 2 of the H3 receptor). […] Positive 100 cells/well pools were identified by PCR, confirmed by sequencing, and subsequently subcloned to 0.8 cells/well. Once clones expressing the H3 receptor were identified by PCR analysis, assays (FLIPR or radioligand binding) were performed to confirm that the activated gene produced functional protein. The protein expression in the initial clones obtained from the RAGE library was increased by growth in the presence of methotrexate. Since the integrated RAGE vector contains the DHFR gene, such treatment selects for cells that have amplified the genetic locus containing the RAGE insert. Subclones obtained after methotrexate amplification were tested for functional activity in FLIPR assays to identify the clone that was most suitable for HTS. The final HT1080-Gqαi5 RAGE clone (RAGE-H3) expressing the human histamine H3 receptor was grown in alpha-modified MEM containing 10% fetal bovine serum, 3 μg/ml puromycin, 500 μg/ml hygromycin B, 3.2 μM methotrexate at 37° C. in 5% CO2/95% atmosphere.
RAGE-H3 cells (10^9) were washed twice with cold PBS, scraped off the plates, and centrifuged at 1000×g for 5 minutes. Cells were resuspended in ice-cold 10 mM Tris HCl, pH 7.4, containing 5 mM EDTA and protease inhibitor cocktail tablets (Roche Molecular Biochemicals). After incubating on ice for 10 minutes, the cells were homogenized with a dounce homogenizer or a polytron tissue grinder, and centrifuged at 1000×g for 10 minutes at 4° C. The resulting supernatant was centrifuged at 32,000×g for 30 minutes at 4° C. The membrane pellets were resuspended in 50 mM Tris HCl, pH 7.4, and stored at −80° C. until use. Protein concentration was determined by the Bradford method (Bio-Rad Laboratories, CA).
Binding assays were carried out in 96-well polypropylene plates in 50 mM Tris HCl, pH 7.4, containing 1 mM EDTA. Reaction mixtures contained 100 μl of membrane suspension, 50 of 4% DMSO, and 50 μl of increasing amounts of [^125I]iodoproxyfan (final concentration 0.0005-1.8 nM for human H3 receptor saturation binding assay). Nonspecific binding was defined by adding 10 μM clobenpropit to the reaction mixtures. Competition binding assays were performed in a reaction mixture containing 100 μl of membrane suspension (˜20 μg of protein/well), 50 μl of [^125I]iodoproxyfan (final concentration of ˜0.15 nM) and 50 μl of test compound. Compounds were dissolved in DMSO and then diluted with 4% DMSO; the final maximal DMSO concentration in the binding assays was 1%. […]
Background: Loss of bound radioactivity is the signal in a displacement assay; it reports binding, not function.
In the case of `c1ccc2c(c1)cc(COC1CCCC1)n2-c1ccc(OCCCN2CCCC2)cc1` [Example 35, 2-Cyclopentyloxymethyl-1-[4-(3-pyrrolidin-1-ylpropoxy)phenyl]-1H-indole], the Ki is below 10 nM.

`CCCc1cc2ccccc2n1-c1ccc(OCCCN2CCCC2)cc1` [Example 38, 2-Propyl-1-[4-(3-pyrrolidin-1-ylpropoxy)phenyl]-1H-indole]: the Ki is below 10 nM.

For `COCc1cc2cc(OC)ccc2n1-c1ccc(OCCCN2CCCC2)cc1` [Example 42, 5-Methoxy-2-methoxymethyl-1-[4-(3-pyrrolidin-1-ylpropoxy)phenyl]-1H-indole], the Ki is below 10 nM. Next, `CC(C)CNC(=O)c1cc2ccccc2n1-c1ccc(OCCCN2CCC[C@H]2C)cc1` [Example 27, 1-{4-[3-(2R-Methylpyrrolidin-1-yl)propoxy]phenyl}-1H-indole-2-carboxylic acid isobutylamide]: below 10 nM; `Cc1cc2ccccc2n1-c1ccc(OCCCN2CCCCC2)cc1` [Example 2, 2-Methyl-1-[4-(3-piperidin-1-ylpropoxy)phenyl]-1H-indole]: below 10 nM; `C[C@@H]1CCCN1CCCOc1ccc(-n2c(C(=O)N3CCCCC3)cc3ccccc32)cc1` [Example 24, (1-{4-[3-(2R-Methylpyrrolidin-1-yl)propoxy]phenyl}-1H-indol-2-yl)piperidin-1-ylmethanone]: below 10 nM.

As for `c1ccc2c(c1)cc(C1CC1)n2C1CCC(OCCCN2CCCC2)CC1` (single isomer, unassigned) [Example 39, 2-Cyclopropyl-1-[4-(3-pyrrolidin-1-ylpropoxy)cyclohexyl]-1H-indole], the Ki was below 10 nM. Next, `COCc1cc2ccccc2n1-c1ccc(OCCCN2CCCC2)cc1` [Example 32, 2-Methoxymethyl-1-[4-(3-pyrrolidin-1-ylpropoxy)phenyl]-1H-indole]: below 10 nM; `COCc1cc2cc(F)ccc2n1-c1ccc(OCCCN2CCCC2)cc1` [Example 44, 5-Fluoro-2-methoxymethyl-1-[4-(3-pyrrolidin-1-ylpropoxy)phenyl]-1H-indole]: below 10 nM; `CCCCNC(=O)c1cc2ccccc2n1-c1ccc(OCCCN2CCC[C@H]2C)cc1` [Example 26, 1-{4-[3-(2R-Methylpyrrolidin-1-yl)propoxy]phenyl}-1H-indole-2-carboxylic acid butylamide]: below 10 nM. The same measure for `COc1ccc2c(c1)cc(C(=O)NC1CCCCC1)n2-c1ccc(OCCCN2CCC[C@H]2C)cc1` [Example 29, 5-Methoxy-1-{4-[3-(2R-methylpyrrolidin-1-yl)propoxy]phenyl}-1H-indole-2-carboxylic acid cyclohexylamide]: below 10 nM; for `CC(C)OCc1cc2ccccc2n1-c1ccc(OCCCN2CCCC2)cc1` [Example 34, 2-Isopropoxymethyl-1-[4-(3-pyrrolidin-1-ylpropoxy)phenyl]-1H-indole]: below 10 nM.

With `COc1ccc2c(c1)cc(C(=O)N1CCCC1)n2-c1ccc(OCCCN2CCC[C@H]2C)cc1` [Example 18, (5-Methoxy-1-{4-[3-(2R-methylpyrrolidin-1-yl)propoxy]phenyl}-1H-indol-2-yl)pyrrolidin-1-ylmethanone], the Ki is below 10 nM.

On to `C[C@@H]1CCCN1CCCOc1ccc(-n2c(C(=O)N3CCOCC3)cc3ccccc32)cc1` [Example 25, (1-{4-[3-(2R-Methylpyrrolidin-1-yl)propoxy]phenyl}-1H-indol-2-yl)morpholin-4-ylmethanone], for which the Ki is below 10 nM. The same measure for `Cc1cc2ccccc2n1-c1ccc(OCCCN2CCCC2)cc1` [Example 1, 2-Methyl-1-[4-(3-pyrrolidin-1-ylpropoxy)phenyl]-1H-indole]: below 10 nM; for `COc1ccc2c(c1)cc(CO)n2-c1ccc(OCCCN2CCCC2)cc1` [Example 36, {5-Methoxy-1-[4-(3-pyrrolidin-1-ylpropoxy)phenyl]-1H-indol-2-yl}methanol]: below 10 nM. The same measure for `OCc1cc2ccccc2n1-c1ccc(OCCCN2CCCC2)cc1` [Example 31, {1-[4-(3-Pyrrolidin-1-ylpropoxy)phenyl]-1H-indol-2-yl}methanol]: below 10 nM; for `C[C@@H]1CCCN1CCCOc1ccc(-n2c(C(=O)NC3CCCCCC3)cc3ccccc32)cc1` [Example 22, 1-{4-[3-(2R-Methylpyrrolidin-1-yl)propoxy]phenyl}-1H-indole-2-carboxylic acid cycloheptylamide]: below 100 nM. The same measure for `Cc1cc2cc(F)ccc2n1-c1ccc(OCCCN2CCCC2)cc1` [Example 13, 2-Methyl-5-fluoro-1-[4-(3-pyrrolidin-1-ylpropoxy)phenyl]-1H-indole]: below 10 nM; for `OCCc1cc2ccccc2n1-c1ccc(OCCCN2CCCC2)cc1` [Example 41, 2-{1-[4-(3-Pyrrolidin-1-ylpropoxy)phenyl]-1H-indol-2-yl}ethanol]: below 10 nM.

As to `C[C@@H]1CCCN1CCCOc1ccc(-n2c(C(=O)NC3CCCC3)cc3ccccc32)cc1` [Example 20, 1-{4-[3-(2R-Methylpyrrolidin-1-yl)propoxy]phenyl}-1H-indole-2-carboxylic acid cyclopentylamide], the Ki is below 10 nM. Next, `CCOC(=O)c1cc2ccccc2n1-c1ccc(OCCCN2CCCC2)cc1` [Example 30, 1-[4-(3-Pyrrolidin-1-ylpropoxy)phenyl]-1H-indole-2-carboxylic acid ethyl ester]: below 10 nM; `Clc1ccc2ccn(-c3ccc(OCCCN4CCCC4)cc3)c2c1` [Example 12, 6-Chloro-1-[4-(3-pyrrolidin-1-ylpropoxy)phenyl]-1H-indole]: below 100 nM; `C[C@@H]1CCCN1CCCOc1ccc(-n2c(C(=O)NCC3CCCCC3)cc3ccccc32)cc1` [Example 28, 1-{4-[3-(2R-Methylpyrrolidin-1-yl)propoxy]phenyl}-1H-indole-2-carboxylic acid cyclohexylmethylamide]: below 10 nM. With `COCc1cc2cc(C)ccc2n1-c1ccc(OCCCN2CCCC2)cc1` [Example 43, 5-Methyl-2-methoxymethyl-1-[4-(3-pyrrolidin-1-ylpropoxy)phenyl]-1H-indole], the Ki was below 10 nM. Next, `Cc1ccc2c(c1)cc(C)n2-c1ccc(OCCCN2CCCC2)cc1` [Example 11, 2,5-Dimethyl-1-[4-(3-pyrrolidin-1-ylpropoxy)phenyl]-1H-indole]: below 100 nM; `COCCc1cc2ccccc2n1-c1ccc(OCCCN2CCCC2)cc1` [Example 40, 2-(2-Methoxyethyl)-1-[4-(3-pyrrolidin-1-ylpropoxy)phenyl]-1H-indole]: below 10 nM.

In the case of `C[C@@H]1CCCN1CCCOc1ccc(-n2c(C(=O)NC3CCC3)cc3ccccc32)cc1` [Example 19, 1-{4-[3-(2R-Methylpyrrolidin-1-yl)propoxy]phenyl}-1H-indole-2-carboxylic acid cyclobutylamide], the Ki is below 10 nM. The same measure for `C[C@@H]1CCCN1CCCOc1ccc(-n2c(C(=O)N3CCCC3)cc3ccccc32)cc1` [Example 23, (1-{4-[3-(2R-Methylpyrrolidin-1-yl)propoxy]phenyl}-1H-indol-2-yl)pyrrolidin-1-ylmethanone]: below 10 nM; for `c1ccc2c(c1)cc(COC1CCCCC1)n2-c1ccc(OCCCN2CCCC2)cc1` [Example 33, 2-Cyclohexyloxymethyl-1-[4-(3-pyrrolidin-1-ylpropoxy)phenyl]-1H-indole]: below 10 nM.
